We go through three compounds from ChEMBL document CHEMBL1221299, “Unnatural enantiomer of chaetocin shows strong apoptosis-inducing activity through caspase-8/caspase-3 activation” (Bioorg Med Chem Lett, 2010).

Calls of active or inactive are those of the source. The calls are words filed in the database; no cut-off is given here.

Common to all, as to format: functional, cell-based
The test system of assay [1] is HL-60. Put plainly: Induction of apoptosis in human HL60 cells assessed as necrotic cell death at 30 uM after 4 hrs using DAPI/PI by confocal laser microscopy analysis.
The test system of assay [2] is HL-60. Put plainly: Induction of apoptosis in human HL60 cells assessed as reduction of cell viability after 4 hrs by alamar blue assay.
The subject of assay [3] is HL-60. Put plainly: Induction of apoptosis in human HL60 cells assessed as DNA ladder formation at 0.3 uM after 4 hrs by DNA electrophoresis.
Assay [4] concerns HL-60. Briefly: Induction of apoptosis in human HL60 cells assessed as nuclear fragmentation at 0.3 uM after 4 hrs using DAPI/PI by confocal laser microscopy analysis.
Assay [5] has as its system HL-60. Briefly: Induction of apoptosis in human HL60 cells assessed as activation of caspase 3 at 0.3 uM after 2 hrs by Western blot analysis.
In assay [6] the test system is HL-60. Briefly: Induction of apoptosis in human HL60 cells assessed as increase of cellular ROS level.
The test system of assay [7] is HL-60. Briefly: Induction of apoptosis in human HL60 cells assessed as DNA ladder formation at 30 uM after 4 hrs by DNA electrophoresis.
Assay [8] has as its system HL-60. Briefly: Induction of apoptosis in human HL60 cells at 0.3 uM in presence of caspase 9 inhibitor […].
Assay [9] concerns HL-60. Put plainly: Induction of apoptosis in human HL60 cells at 0.3 uM in presence of caspase 8 inhibitor Z-IETD.
Assay [10] has as its system HL-60. Put plainly: Potentiation of TNF-alpha-ligand-induced apoptosis in human HL60 cells at 30 uM.
Assay [11] deals with HL-60. Briefly: Potentiation of FAS-ligand-induced apoptosis in human HL60 cells at 30 uM.
The subject of assay [12] is HL-60. Put plainly: Induction of apoptosis in human HL60 cells assessed as activation of caspase 3 at 0.3 uM after 2 hrs by Western blot analysis in presence of caspase inhibitor Z-VAD.
Assay [13] has as its system HL-60. Briefly: Induction of apoptosis in human HL60 cells assessed as activation of caspase 3 at 0.3 uM after 2 hrs by Western blot analysis in presence of caspase 8 inhibitor Z-IETD.
In assay [14] the test system is HL-60. Put plainly: Induction of apoptosis in human HL60 cells assessed as activation of caspase 3 at 0.3 uM after 2 hrs by Western blot analysis in presence of caspase 9 inhibitor […].
Assay [15] deals with HL-60. Briefly: Induction of apoptosis in human HL60 cells assessed as reduction of cell viability at up to 30 uM after 4 hrs by alamar blue assay.

With `CN1C(=O)[C@@]23C[C@]4([C@]56C[C@@]78SS[C@@](CO)(C(=O)N7[C@H]5Nc5ccccc56)N(C)C8=O)c5ccccc5N[C@@H]4N2C(=O)[C@]1(CO)SS3`, the outcome with HL-60 [1], in the assay with HL-60 [4] and with HL-60 [5] was Active. Further, the Activity entry with HL-60 [2] is “Dose-dependent effect”. In addition, the outcome with HL-60 [3] and in the assay on HL-60 [6] was inactive.
Regarding `CN1C(=O)[C@]23C[C@@]4([C@@]56C[C@]78SS[C@](CO)(C(=O)N7[C@@H]5Nc5ccccc56)N(C)C8=O)c5ccccc5N[C@H]4N2C(=O)[C@@]1(CO)SS3`, the outcome in the assay with HL-60 [7], with HL-60 [9], with HL-60 [10], in the assay on HL-60 [11], with HL-60 [12] and with HL-60 [13] was inactive. Also, the result in the assay on HL-60 [6] was inactive. Besides, the result with HL-60 [8], in the assay with HL-60 [1], with HL-60 [3], in the assay with HL-60 [4], in the assay on HL-60 [5] and in the assay with HL-60 [14] was Active.
Turning to `CN1C(=O)[C@H]2C[C@]3([C@]45C[C@@H]6C(=O)N(C)[C@H](CO)C(=O)N6[C@H]4Nc4ccccc45)c4ccccc4N[C@@H]3N2C(=O)[C@H]1CO`, in the assay on HL-60 [15], the result was inactive.
